Tests used:
[1] = test system: mouse experimental autoimmune encephalomyelitis (EAE) model; test: disease animal model of MS (mouse experimental autoimmune encephalomyelitis (EAE) model, clinical score); type: in vivo; conditions: experiment using a disease animal model of MS
Method: Using a mouse EAE model, the suppressive effect of Compound A on an increase in clinical score was evaluated. The evaluation was performed by reference to non-patent document 3. As the experiment animal, 8-week-old female C57BL/6J mouse (CHARLES RIVER LABORATORIES JAPAN, INC.) was used. Monohydrochloride of Compound A was dissolved in 0.5% (w/v) methylcellulose (MC) to prepare 1 mg/mL, 3 mg/mL and 6 mg/mL Compound A solutions. FTY-720 hydrochloride (Cayman Chemical) was dissolved in 0.5% (w/v) MC to prepare a 0.01 mg/mL FTY-720 solution. […]
As clinical scores (score 0; normal, score 1; limp tail, score 2; hind limb weakness, score 3; partial hind limb paralysis, score 4; complete hind limb paralysis, score 5; moribund state, dead), the condition was observed over time and scored for each individual for 18 days from day 1.
Using a mouse Adoptive transfer EAE model, the suppressive effect of Compound A on an increase in clinical score was evaluated. […]
As clinical scores (score 0; normal, score 1; limp tail, score 2; hind limb weakness, score 3; partial hind limb paralysis, score 4; complete hind limb paralysis, score 5; moribund state, dead), the condition was observed over time and scored for each individual for 20 days from day 1.

[2] = target: T1, inducible T cell kinase (ITK) (Homo sapiens, UniProt Q08881); conditions: as described in patent document 1 (WO 2011/065402); cited from earlier work
T1 sequence (Q08881 1-620): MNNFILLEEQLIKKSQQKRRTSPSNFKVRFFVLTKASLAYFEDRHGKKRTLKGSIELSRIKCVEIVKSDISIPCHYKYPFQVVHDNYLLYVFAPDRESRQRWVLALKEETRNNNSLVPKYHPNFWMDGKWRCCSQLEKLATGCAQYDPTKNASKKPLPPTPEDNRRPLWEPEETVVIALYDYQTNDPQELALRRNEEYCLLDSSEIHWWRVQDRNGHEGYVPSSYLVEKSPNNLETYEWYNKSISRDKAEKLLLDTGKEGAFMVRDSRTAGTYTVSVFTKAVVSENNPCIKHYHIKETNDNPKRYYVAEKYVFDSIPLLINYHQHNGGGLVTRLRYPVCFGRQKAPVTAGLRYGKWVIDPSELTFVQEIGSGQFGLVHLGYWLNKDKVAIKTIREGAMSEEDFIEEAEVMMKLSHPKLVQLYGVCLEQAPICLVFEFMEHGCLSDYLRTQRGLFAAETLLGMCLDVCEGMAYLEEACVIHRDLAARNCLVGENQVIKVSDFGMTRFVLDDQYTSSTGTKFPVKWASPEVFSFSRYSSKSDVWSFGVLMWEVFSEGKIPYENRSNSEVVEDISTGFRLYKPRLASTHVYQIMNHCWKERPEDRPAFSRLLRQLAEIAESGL

## C[C@@H](C(=O)N(C)c1ccc2cc(-c3n[nH]c4c3CCC(C)(C)C4)[nH]c2c1)N1CCOCC1 [Compound A, N-[2-(6,6-dimethyl-4,5,6,7-tetrahydro-1H-indazol-3-yl)-1H-indol-6-yl]-N-methyl-(2S)-2-(morpholin-4-yl)propanamide]
[1]
  severity of the disease: significantly reduce severity of the disease
[2]
  ITK inhibitory activity: has an ITK inhibitory activity

Source: US12458646B2, “Therapeutic or preventing agent for multiple sclerosis including indole compound” (JAPAN TOBACCO INC., priority 2018, dated 2025)
